Values after ≈ are worked out from the molar mass of the structure shown. Read-outs that look alike come from different tables or passages of the source.
Legend:
[1] = Metal chelate formation constants, potentiometric titration; format: physicochemical; conditions: titrimetric analysis, estimated; read-out: formation constants of 1:1 chelates with divalent metal ions
Description: Such a possibility was investigated using a dipicolinic acid halide to derivatize the ortho aminomethyl group of a phenolic structure (see Compounds 3 and 4 of FIG. 2). The dealkylation of the phosphonyl and acyl esters of this adduct exposes the potential ligands for the formation of a metal chelate. The intrinsic stability of complexes of this ligand, however, determined with divalent transition metals such as cobalt, zinc and copper, are probably too low to expect these chelates to maintain their integrity in the immunization process. In fact, the formation constants of 1:1 chelates of Compound 3 with the divalent metal ions are in the range of 10^4 -10^5 M^-1 as estimated by titrimetric analysis.
Determination of pKa and stability constants K:
All determinations of pKa and stability constants (K) are performed according to the method of Martell. This method consisted of potentiometric titration of the particular compound (at a concentration of about 1.4 mM) in the absence of and in the presence of the metal ion being investigated. The ionic strength was maintained constant using 0.1M NaClO4 as a supporting electrolyte. All measurements were carried out under nitrogen at 25 degrees C plus or minus 0.01 degrees C.

[2] = target: monoclonal antibody P3 6D4; assay: Kinetics and inhibition of catalytic ester hydrolysis by monoclonal antibody P3 6D4, spectrophotometric at 245 nm; format: biochemical, mouse; conditions: for Ki / kcat/kuncat: pH 8.0; for Ki: figure = Ki × 10^7, read-out: Ki; for Km / Vmax / kcat: 50 mM phosphate pH 8.0, 25 C; for Km / Vmax: 100 nM IgG; for Km: figure = Km × 10^6; for Vmax: figure = Vmax × 10^9; for kcat: printed figure = kcat × 10^2; for acceleration above the background rate: pH 8.0, corrected for background hydrolysis rate
Procedure: FIG. 4 illustrates a Lineweaver-Burk plot for the hydrolysis of Compound 7 by anti-Compound 4 monoclonal antibody from hybridoma P3 6D4. Velocities were determined spectrophotometrically by measuring initial rates during the first linear portion of the reaction as described with reference to Table 2. The substrate concentrations were corrected for amounts consumed during initial equilibration. ( ) No inhibitor present. ( ) Inhibited by 50 nM phosphonate (Compound 3). ( ) Inhibited by 100 nM phosphonate (Compound 3).
(§1) In particular, an exemplary monoclonal receptor was produced by the standard hybridoma technology of Kohler et al., Nature, 256, 495 (1975). Specifically, female 129G1X^+ mice were immunized by intraperitoneal injection with an inoculum of 100 micrograms of conjugate (e.g., Compound 4i bound to KLH) in 300 microliters of a 1:1 mixture of phosphate buffered saline (PBS) pH 7.4 and complete Freund's adjuvant. Two weeks later, the mice were again injected in a like manner with 50 micrograms of the foregoing conjugate in 300 microliters of a 1:1 mixture of PBS (pH 7.4) and 10 mg/ml alum. After an additional eight weeks, the mice were immunized intravenously with 50 micrograms of the conjugate in 200 microliters of PBS (pH 7.4). The spleens were removed from the mice 4 days later, and the spleen cells were fused to myeloma cells.
Reaction kinetics were measured spectrophotometrically by following the absorption change at 245 nanometers. […] Kinetic parameters obtained with these substrates are shown in Table 2 along with the inhibition constants obtained with phosphonate (Compound 3). Under these conditions, the acceleration above the background rate is about 960-fold for Compound 7 and about 200-fold for Compound 8 (corrected for the background hydrolysis rate).
*The kinetic parameters shown in Table 2 are for the hydrolysis of esters
(Compounds 7 and 8) by monoclonal antibody P3 6D4. A PerkinElmer lambda 4
spectrophotometer, equipped with thermostatted cell holder, was used to
measure absorption changes at 245 nm. Cells containing the substrate at
concentrations of 0.5 to 50 micromolar in phosphate buffer (50 mM, pH 8.0
were preequilibrated at 25 degrees C. The concentration of active IgG in
stock solution was found by reacting with the coumarin ester (Compound 5)
and measuring the yield of hydroxycoumarin by fluorescence. The kinetic
run was initiated by addition of an aliquot of the antibody stock solutio
(in 50 mM phosphate buffer, pH 8.0) calculated to give 100 nM IgG. The
mixture was allowed to equilibrate for 2 to 3 minutes and the rate was
then measured during the subsequent 10 minutes. The absorption change for
complete hydrolysis was determined by treatment with esterase. Kinetic
parameters were obtained from L ineweaverBurk plots (see FIG. 4).
Inhibition constants were determined from a plot of the slopes with at
least four inhibitor concentrations of Compound 3. The data were analyzed

Solubility = format: physicochemical; conditions: aqueous buffer
[3] = tested on: monoclonal antibody P3 6D4; assay: Ester hydrolysis by monoclonal antibody P3 6D4, HPLC; format: biochemical, mouse; conditions: for t1/2 Antibody (P3 6D4): 5 micromolar substrate, 0.1 micromolar antibody, 50 mM phosphate pH 8.0, 25 C
Procedure: FIG. 3 illustrates the rate of hydrolysis of a carboxylic ester (Compound 7) determined by HPLC under the conditions described in Table 1 (50 mM phosphate buffer at pH 8.0 and 23 degrees C). ( ) Uncatalyzed (background)rate of hydrolysis. (.quadrature.) Effect of 0.5 micromolar non-specific monoclonal IgG. ( ) 0.1 Micromolar anti-Compound 4 monoclonal antibody from hybridoma P3 6D4. The superimposed curve represents a theoretical exponential decay which fits the data points.
as §1
(§2) The lack of spectroscopic distinction between such esters and their hydrolysis products recommended a chromatographic analysis of the process. Referring to FIG. 3, a mixture of Compound 7 (5 uM) and the monoclonal antibody from hybridoma P3 6D4 (0.1 uM) in phosphate buffer (50 mM, pH 8.0) was analyzed over time by high performance liquid chromatography (HPLC). The accelerated hydrolysis of the ester was apparent from the decrease of its peak and the concurrent increase in two new peaks that correspond with the expected products. Under these conditions, the ester is completely consumed in 60-80 minutes during which time the background rate accounts for about 12 to 16 percent hydrolysis. The chromatographic profile is the same as that produced by treatment with hog liver esterase.
(§3) *Hydrolysis of carboxylic esters by monoclonal antibody (from hybridoma P
(§4) 6D4) and by hog liver esterase (Sigma Chemical Co., St. Louis, MO, EC
(§5) 3.1.1.1) determined by HPLC on an analytical RPC18 column (Vydac 218TP54)
(§6) with isocratic elution [acetonitrile: water plus 0.1 percent
(§7) trifluoroacetic acid; (35:65)] at a flow rate of 1.0 ml/min and the
(§8) detector set at 245 nm. The initial substrate concentration was 5
(§9) micromolar and that the internal standard (acetophenone) was 10 microm
(§10) olar in 50 mM phosphate buffer at pH 8.0. The retention times (minutes)
(§11) were as follows: acetophenone, 5.0; Compound 7, 8.3; Compound 8, 6.7;
(§12) Compound 9, 4.1; Compound 10, 11.1 (40 percent acetonitrile elution);
(§13) Compound 11, 8.2. The antibody concentration was 15 micrograms/ml (0.1
(§14) micromolar) and that of esterase was 5.5 micrograms/ml. The reaction
(§15) mixtures were kept at 25 degrees C. and aliquots were analyzed at
(§16) intervals of 2 to 20 minutes. Three or more determinations were used to
(§17) plot a curve from which the halflife of the reaction is estimated (see

hog liver esterase = format: biochemical; conditions: pig, 5 µM, pH 8
Procedure: as §2, §3, §4, §5, §6, §7, §8, §9, §10, §11, §12, §13, §14, §15, §16, §17

[4] = Spontaneous (uncatalyzed, background) hydrolysis; format: physicochemical; conditions: spectrophotometric at 245 nm, initial rates at five ester concentrations; figure = k × 10^5
In short: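 Background (uncatalyzed) hydrolysis of ester substrates measured in 50 mM phosphate buffer, pH 8.0, without antibody, as percentage of reactant consumed over the stated period. Quantified by C18 HPLC (acetonitrile/water with 0.1% trichloroacetic acid); Compounds 5 and 20 followed by fluorescence (ex 355 nm, em 455 nm).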

[5] = tested on: monoclonal receptor P3 6D4; assay: Stoichiometric transacylation reaction of monoclonal receptor P3 6D4 with coumarin ester Compound 5 (fluorescence) and its inhibition/inactivation; format: biochemical, mouse
In short: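 Antibody P3 6D4 (100 nM final) reacted at 23 °C with coumarin ester 5 in Tris-HCl or phosphate buffer (50 mM, pH 4–9), followed by fluorescence (ex 355/em 455 nm). Initial rates corrected for spontaneous hydrolysis; kinetic parameters from hyperbolic and double-reciprocal fits, Ki from Lineweaver-Burk with ≥5 inhibitor concentrations.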

[6] = leaving group alcohol; source not stated; cited from earlier work

Row | SMILES | t1/2 Antibody (P3 6D4) [3] | t1/2 Esterase (hog liver esterase) | Km [2] | Vmax [2] | kcat [2] | kcat/kuncat [2] | acceleration above the background rate [2] | further results
1 | CCOP(=O)(Cc1ccc(NC(=O)C(F)(F)F)cc1)Oc1ccc(NC(C)=O)cc1CNC(=O)c1cccc(C(=O)OC)n1 (stereo not shown) [Compound 3] | – | – | – | – | – | – | – | Kd [1]: 10000 to 100000 nM; Ki ([2]; inhibitor Compound 3, substrate Compound 7 (table line 7)): 160 nM; Ki ([2]; inhibitor Compound 3, substrate Compound 8 (table line 8)): 65 nM
2 | CC(=O)Nc1ccc(OC(=O)Cc2ccc(NC(=O)C(F)(F)F)cc2)cc1 [Compound 7] | 16 min | 4 min | 1.9 µM | 0.132 µM/min | 0.027 s⁻¹ | 960 | about 960 fold | solubility (Solubility; read-out: concentration above which solutions become slightly turbid): 15 µM (≈ 5.7 µg/mL); time to complete consumption of ester ([3]; 5 uM Compound 7, 0.1 uM antibody P3 6D4, 50 mM phosphate pH 8.0): 60 to 80 min; kuncat [4]: 280000 s⁻¹; turn over of receptor with substrate ([2]; without noticeable inactivation): several hundred fold
3 | O=C(O)CCC(=O)Nc1ccc(OC(=O)Cc2ccc(NC(=O)C(F)(F)F)cc2)cc1 [Compound 8] | 60 min | 52 min | 0.62 µM | 0.06 µM/min | 0.008 s⁻¹ | 210 | about 200 fold | solubility (Solubility; 50 mm phosphate buffer, phosphate buffer 50 mM, pH 8.0, read-out: soluble up to concentration): ≥ 100 µM; inactivation of receptor [5]: loss of activity; accelerated hydrolysis by P3 6D4 (substrate acceptance) ([3]; pH 8.0): somewhat slower rate
4 | Oc1cccc2ccccc12 [alpha-naphthol] | – | – | – | – | – | – | – | pKa [6]: about 9.3
